For data set [1] the following is noted: Nutt and Fellman 1984; cited from earlier work.
For data set [2] the following is noted: clinical use; Olanow and Watkins 2007; cited from earlier work.
The conditions of data set [3]: Russ, et al. 1999; cited from earlier work.
The target in data set [4] is T1, aromatic amino acid decarboxylase (AAAD) (Homo sapiens, UniProt P20711).
T1 sequence (P20711 1-480): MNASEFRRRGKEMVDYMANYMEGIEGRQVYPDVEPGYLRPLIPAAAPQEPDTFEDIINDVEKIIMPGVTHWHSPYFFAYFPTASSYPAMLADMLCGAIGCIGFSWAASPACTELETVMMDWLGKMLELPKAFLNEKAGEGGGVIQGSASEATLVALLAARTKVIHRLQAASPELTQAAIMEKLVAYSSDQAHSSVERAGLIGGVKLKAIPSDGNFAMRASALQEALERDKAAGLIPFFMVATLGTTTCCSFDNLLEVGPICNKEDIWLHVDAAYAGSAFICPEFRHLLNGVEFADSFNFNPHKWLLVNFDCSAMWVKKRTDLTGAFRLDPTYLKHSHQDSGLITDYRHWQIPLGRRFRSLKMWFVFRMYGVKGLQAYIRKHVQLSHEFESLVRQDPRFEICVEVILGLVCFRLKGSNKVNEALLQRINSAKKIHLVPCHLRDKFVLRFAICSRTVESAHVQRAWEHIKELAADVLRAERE
The settings on record: given with L-DOPA; Nutt, Woodward et al. 1985; cited from earlier work.

In data set [5] the target is T2, catechol-O-methyltransferase (COMT) (Homo sapiens, UniProt P21964).
T2 construct: M51A variant) was expressed in HEK 293F cells
T2 sequence (P21964 52-271 limits assumed): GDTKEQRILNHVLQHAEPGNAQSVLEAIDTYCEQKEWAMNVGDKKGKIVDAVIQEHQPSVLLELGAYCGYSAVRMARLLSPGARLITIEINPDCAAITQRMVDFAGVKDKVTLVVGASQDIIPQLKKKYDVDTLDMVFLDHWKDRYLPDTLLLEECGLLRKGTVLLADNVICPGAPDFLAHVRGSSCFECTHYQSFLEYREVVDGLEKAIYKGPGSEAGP
The data set is described as follows: COMT inhibition assay (HTRF, production of S-adenosyl homocysteine). Type of data set: biochemical. The settings on record: recombinant human COMT, HTRF SAH production; MB-COMT or S-COMT not stated for Table 1. The procedure, abridged: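 SAH formed from SAM (20 μM) measured by HTRF with SAH standard curve; pIC50 from 4-parameter fit. MB-COMT (M51A, HEK293F membranes, 62 ng/well): 1.5 μM dopamine, 40 min, 37° C.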
Background: In TR-FRET formats the signal depends on donor and acceptor labels being close together.

Consider 5 compounds from patent US10035799B2, “COMT inhibiting methods and compositions” (Lieber Institute for Brain Development, priority 2015, dated 2018).

As to `N[C@@H](Cc1ccc(O)c(O)c1)C(=O)O` [L-DOPA], the “percentage of exogenously administered L-DOPA that reaches the brain” value in data set [1] is reported as approximately 1%.
On to `Cc1ccc(C(=O)c2cc(O)c(O)c([N+](=O)[O-])c2)cc1` [tolcapone], for which the liver injury result in data set [2] is listed as “serious liver injury, including three deaths”. The brain penetration entry in data set [3] was “low but measurable”.
In the case of `CCN(CC)C(=O)/C(C#N)=C/c1cc(O)c(O)c([N+](=O)[O-])c1` [entacapone], the brain penetration entry in data set [3] was “negligible”.
In the case of `C[C@@](Cc1ccc(O)c(O)c1)(NN)C(=O)O` [Carbidopa], the “reduction of the efficacious L-DOPA dose” value in data set [4] is on record as 60-80%.
For the compound `CCS(=O)(=O)c1ccc(O)c2ncccc12` [Example 33, 5-ethylsulfonylquinolin-8-ol], in data set [5], the “Activity range (pIC50, COMT inhibition)” value is “+ (a pIC50 of from about 4.5 to 6)”.
